Measurements: patent US20120053148A1, “INHIBITORS OF HEPATITIS C VIRUS” (GILEAD SCIENCES, INC., priority 2010, published 2012)
Where two headings read alike, the source gives them in different places.

Test system: HCV Replicon IB
Test: HCV replicon assay in Huh-7 cells, genotype 1b (Rluc luciferase readout)
Format: cell-based, hepatitis C virus
Conditions: for inhibition at 10 µM: 72 h, 1b-Rluc replicon, read-out: Inhibition @ 10 uM in 1b-Rluc
[1] = Hepatitis C virus, Huh-7, 72 h, HCV1B replicon, Huh-7 cells, 3 days, read-out: EC50_HCV1B_
[2] = Hepatitis C virus, Huh-7 cells, 3 days
[3] = HCV1B replicon, Huh-7 cells, 3 days, read-out: EC50_HCV1B_
[4] = Hepatitis C virus, Huh-7, 72 h, read-out: EC50_HCV1B_

| SMILES | EC50 [1] | inhibition at 10 µM [2] | also measured |
| --- | --- | --- | --- |
| Cc1cc(-c2nnc(NC3CCOCC3)o2)nc2c(C(C)(C)C)cc(OCC(F)(F)F)cc12 [Compound 488] | 6.82 nM |  |  |
| CC(C)(C)c1cc(OCC(F)(F)F)cc2c(N)cc(-c3nnc(Nc4ccccn4)o3)nc12 [Compound 520] | 0.44 nM |  |  |
| Cc1cc(-c2nnc(NCC(O)CO)s2)nc2c(C(F)(F)F)cc(C3CC3)cc12 (stereo not shown) [Compound 301] |  | 99.6% |  |
| O=C(NCC1CS(=O)(=O)CCN1)c1cc(Cl)c2cc(OC(F)F)cc(C(F)(F)F)c2n1 (stereo not shown) [Compound 197] |  | 92.8% |  |
| Cc1cc(-c2nnc(NCC3COC3)o2)nc2c(C(C)(C)C)cc(OCC(F)(F)F)cc12 [Compound 485] | 1050 nM |  |  |
| Nc1nc(C(=O)NCc2cnccn2)nc2c(C(F)(F)F)cc(-c3ccccc3)cc12 [Compound 435] | 7.84 nM |  |  |
| Cc1cc(C(=O)NC[C@H]2CCCN2)nc2c(C(F)(F)F)cc(C3CC3)cc12 (single isomer, unassigned) [Compound 113] |  | 96.2% |  |
| Cc1cc(C(=O)NCC2(O)CC2)nc2c(C(F)(F)F)cc(-c3ccccc3)cc12 [Compound 163] |  | 98.3% |  |
| Cc1cc(-c2nnc(N[C@H]3C[C@](O)(CO)C3)o2)nc2c(C(C)(C)C)cc(C3CC3)cc12 [Compound 513] |  |  | EC50 [3]: 8.11 nM |
| Cc1cc(-c2nnc(NCCCS(N)(=O)=O)s2)nc2c(C(F)(F)F)cc(C3CC3)cc12 [Compound 309] | 7090 nM |  |  |
| Cc1cc(OC(F)(F)F)c2nc(C(=O)NCc3ncccn3)cc(C)c2c1 [Compound 446] | 523 nM |  |  |
| Cc1cc(-c2nnc(NCC3OCCO3)o2)nc2c(C(F)(F)F)cc(C3CC3)cc12 [Compound 246] |  | 100% |  |
| Cc1cc(-c2nnc(NCC3OCCO3)o2)nc2c(C3(C)OCCO3)cc(C3CC3)cc12 [Compound 540] | 36.6 nM |  |  |
| Cc1cccnc1CNC(=O)c1cc(C)c2cc(C3CC3)cc(C(F)(F)F)c2n1 [Compound 84] |  | 99% |  |
| CO[C@H]1CN[C@@H](CNC(=O)c2cc(N)c3cc(C4CC4)cc(C(C)(C)C)c3n2)C1 [Compound 327] | 16.5 nM |  |  |
| Cc1cc(-c2nnc(NCCS(N)(=O)=O)o2)nc2c(C(C)(C)C)cc(C3CC3)cc12 [Compound 395] | 34.4 nM |  |  |
| Cc1cc(-c2nnc(NCCCNS(C)(=O)=O)s2)nc2c(C(F)(F)F)cc(C3CC3)cc12 [Compound 296] |  | 51.3% |  |
| CC#Cc1cc(C(F)(F)F)c2nc(C(=O)NCc3ccccn3)cc(C)c2c1 [Compound 148] |  | 99.5% |  |
| Cc1cc(-c2nnc(NCCO)o2)nc2c(C(F)(F)F)cc(C3CC3)cc12 [Compound 255] |  | 99.4% |  |
| CC(C)(C)c1cc(C2CC2)cc2c(NC(=O)CN)cc(-c3nnc(NCC4OCCO4)o3)nc12 [Compound 361] | 7.36 nM |  |  |
| Cc1cc(-c2nnc(N[C@H]3C[C@](O)(CCF)C3)o2)nc2c(C(C)(C)C)cc(OCC(F)(F)F)cc12 [Compound 482] | 2.96 nM |  |  |
| CCO[C@H]1CN[C@H](CNC(=O)c2cc(N)c3cc(C4CC4)cc(C(C)(C)C)c3n2)C1 [Compound 330] | 19.8 nM |  |  |
| Cc1cc(-c2nnc(NCC[C@H](C)O)s2)nc2c(C(C)(C)C)cc(C3CC3)cc12 [Compound 403] |  |  | EC50 [3]: 6.52 nM |
| CC(=O)N1CCOCC1CNC(=O)c1cc(C)c2cc(C3CC3)cc(C(F)(F)F)c2n1 (stereo not shown) [Compound 101] |  | 73.3% |  |
| Cc1cc(-c2nnc(NCC3OCCO3)o2)nc2c(C(F)(F)F)cc(OCC(F)(F)F)cc12 [Compound 280] |  | 99.9% |  |

| SMILES | EC50 [1] | inhibition at 10 µM [2] | also measured |
| --- | --- | --- | --- |
| N#Cc1cc(C(=O)NCc2ccccn2)nc2c(C(F)(F)F)cc(C3CC3)cc12 [Compound 215] |  | 99.4% |  |
| Cc1cc(C(=O)NCc2ccccn2)nc2c(C(F)(F)F)cc(C(C)(C)O)cc12 [Compound 161] |  | 76.7% |  |
| Cc1cc(C(=O)NCc2ccccn2)nc2c(C(F)(F)F)cc(C#N)cc12 [Compound 144] |  | 57.9% |  |
| Cc1cc(-c2nnc(N[C@H]3C[C@@](CF)(OP(=O)(O)O)C3)o2)nc2c(C(C)(C)C)cc(OCC(F)(F)F)cc12 [Compound 470] |  |  | EC50 [4]: 0.72 nM |
| Cc1cc(C(=O)NCc2ccccn2)nc2c(C(F)(F)F)cc(CC(C)C)cc12 [Compound 140] |  | 99.1% |  |
| Cc1cc(-c2nnc(NCCCCO)s2)nc2c(C(F)(F)F)cc(C3CC3)cc12 [Compound 307] | 14.1 nM |  |  |
| O=C(NC[C@@H]1CC(F)(F)CCN1)c1cc(Cl)c2cc(OC(F)F)cc(C(F)(F)F)c2n1 (single isomer, unassigned) [Compound 203] |  | 98.3% |  |
| CC(C)(C)c1cc(C2CC2)cc2c(N)cc(C(=O)NCc3ccon3)nc12 [Compound 322] | 5.38 nM |  |  |
| CC(F)(F)CNc1nnc(-c2cc(N)c3cc(C4CC4)cc(C(C)(C)C)c3n2)o1 [Compound 346] | 157 nM |  |  |
| CC(C)(C)c1cc(C2CC2)cc2c(N)cc(C(=O)NCC3COC3)nc12 [Compound 337] | 69.6 nM |  |  |
| C=Cc1cc(C(=O)NCc2cccs2)nc2c(C(F)(F)F)cc(-c3ccccc3)cc12 [Compound 174] |  | 63.6% |  |
| Cc1cc(-c2nnc(NC[C@H]3CCCO3)o2)nc2c(C(C)(C)C)cc(C3CC3)cc12 [Compound 397] | 3.17 nM |  |  |
| Cc1cc(-c2nnc(NCCC(C)(C)O)o2)nc2c(C(C)(C)C)cc(OCC(F)(F)F)cc12 [Compound 449] | 11.3 nM |  |  |
| Cc1cc(-c2nnc(NCC(C)(C)CO)s2)nc2c(C(F)(F)F)cc(C3CC3)cc12 [Compound 304] |  | 96.2% |  |
| Cc1cc(-c2nnc(NCc3ccn[nH]3)o2)nc2c(C(C)(C)C)cc(OCC(F)(F)F)cc12 [Compound 452] | 19.6 nM |  |  |
| Cc1cc(-c2nnc(NCC[C@H](C)O)o2)nc2c(C(C)(C)C)cc(OCC(F)(F)F)cc12 [Compound 456] | 3.3 nM |  |  |
| Cc1cc(-c2nnc(NCC3CCS(=O)(=O)C3)o2)nc2c(C(F)(F)F)cc(C3CC3)cc12 (stereo not shown) [Compound 266] |  | 90.6% |  |
| CC(C)(C)c1cc(C2CC2)cc2c(N)cc(C(=O)NCc3cnccn3)nc12 [Compound 320] | 1.7 nM |  |  |
| CO[C@@H]1CNC(CNC(=O)c2cc(C)c3cc(C4CC4)cc(OC(F)(F)F)c3n2)C1 (stereo partly shown) [Compound 438] | 46 nM |  |  |
| CCCNc1nnc(-c2cc(N)c3cc(C4CC4)cc(C(C)(C)C)c3n2)o1 [Compound 366] | 2.01 nM |  |  |
| Cc1cc(-c2nnc(NCCS(=O)(=O)N(C)C)o2)nc2c(C(F)(F)F)cc(C3CC3)cc12 [Compound 270] |  | 84.7% |  |
| Cc1cc(-c2nnc(Nc3ccccn3)o2)nc2c(C(C)(C)C)cc(OCC(F)(F)F)cc12 [Compound 458] | 0.83 nM |  |  |
| Cc1cc(-c2nnc(N[C@H]3CC[C@@](C)(O)C3)o2)nc2c(C(C)(C)C)cc(OCC(F)(F)F)cc12 (racemic) [Compound 474] | 1.02 nM |  |  |
| Cc1cc(C(=O)NCC2(C)COC2)nc2c(C(F)(F)F)cc(C3CC3)cc12 [Compound 103] |  | 96.1% |  |
| Cc1cc(C(=O)NCC2OCCO2)nc2c(C(F)(F)F)cc(C3CC3)cc12 [Compound 96] |  | 99.9% |  |

| SMILES | EC50 [1] | inhibition at 10 µM [2] | also measured |
| --- | --- | --- | --- |
| CC(C)(C)c1cc(C2CC2)cc2c(Cl)cc(-c3nnc(Nc4ccccc4)o3)nc12 [Compound 349] | 26.9 nM |  |  |
| Cc1cc(-c2nnc(NCC(C)(C)CO)o2)nc2c(C(F)(F)F)cc(C3CC3)cc12 [Compound 260] |  | 96.7% |  |
| Cc1cc(C(=O)NCC2CCCCN2)nc2c(C(F)(F)F)cc(C3CC3)cc12 (stereo not shown) [Compound 108] |  | 96.5% |  |
| CCCCCNc1nnc(-c2cc(C)c3cc(C4CC4)cc(C(F)(F)F)c3n2)o1 [Compound 388] | 13.2 nM |  |  |
| COC1CN[C@H](CNC(=O)c2cc(C)c3cc(C4CC4)cc(C(F)(F)F)c3n2)C1 (single isomer, unassigned) [Compound 127] |  | 99.7% |  |
| Cc1cc(-c2nnc(N[C@H]3C[C@](O)(C(F)F)C3)o2)nc2c(C(C)(C)C)cc(OCC(F)(F)F)cc12 [Compound 468] | 0.36 nM |  |  |
| CNC(=O)[C@@H]1CSC(c2cc(C)c3cc(OC(F)F)cc(C(F)(F)F)c3n2)=N1 [Compound 341] | 3530 nM |  |  |
| Cc1cc(-c2nnc(NCC3OCCO3)o2)nc2c(C(C)(C)C)cc(OCC3CC3)cc12 [Compound 532] |  |  | EC50 [4]: 41.2 nM |
| CSC(F)(F)Oc1cc(C(C)(C)C)c2nc(-c3nnc(N[C@H]4C[C@](O)(CF)C4)o3)cc(C)c2c1 [Compound 530] | 2.81 nM |  |  |
| Cc1cc(-c2nnc(NC3CC(O)(C(F)(F)F)C3)o2)nc2c(C(C)(C)C)cc(OCC(F)(F)F)cc12 (stereo not shown) [Compound 469] | 115 nM |  |  |
| CC(C)(C)c1cc(C2CC2)cc2c(N)cc(C(=O)NC[C@@H]3CC4(CN3)OCCO4)nc12 [Compound 332] |  |  | EC50 (Hepatitis C virus, Huh-7, 72 h, read-out: EC50_HCV1B_(nM)): 3.07 nM |
| COCCCNc1nnc(-c2cc(C)c3cc(C4CC4)cc(C(F)(F)F)c3n2)s1 [Compound 290] |  | 99.9% |  |
| Cc1cc(-c2nnc(NCCCCCO)s2)nc2c(C(F)(F)F)cc(C3CC3)cc12 [Compound 291] |  | 99.1% |  |
| COCCCNc1nnc(-c2cc(C)c3cc(OC)cc(C(F)(F)F)c3n2)o1 [Compound 274] |  | 99.4% |  |
| Nc1cc(C(=O)NC[C@@H]2CC(F)(F)CCN2)nc2c(C(F)(F)F)cc(OC(F)F)cc12 [Compound 314] | 26.1 nM |  |  |
| COc1cc(C(F)(F)F)c2nc(-c3nnc(NCCCO)o3)cc(C)c2c1 [Compound 277] |  | 98.2% |  |
| Cc1cc(C(=O)NC[C@@H]2CC3(CN2)OCCO3)nc2c(OC(F)(F)F)cc(C3CC3)cc12 [Compound 443] | 18.8 nM |  |  |
| Nc1cc(C(=O)NCC2(O)CC2)nc2c(C(F)(F)F)cc(C3CC3)cc12 [Compound 221] |  | 98.8% |  |
| Cc1cc(-c2nnc(NCC3COCCN3)o2)nc2c(C(F)(F)F)cc(C3CC3)cc12 (stereo not shown) [Compound 252] |  | 92.7% |  |
| Cc1cc(C(=O)NCC#N)nc2c(C(F)(F)F)cc(-c3ccccc3)cc12 [Compound 105] |  | 82.8% |  |
| CC(C)(C)c1cc(C2CC2)cc2c(N)cc(-c3nnc(NCCS(N)(=O)=O)o3)nc12 [Compound 351] | 24.1 nM |  |  |
| Cc1cc(C(=O)NCCC2OCCO2)nc2c(C(F)(F)F)cc(C3CC3)cc12 [Compound 106] |  | 99.7% |  |
| CSCOC1(C)CC(Nc2nnc(-c3cc(C)c4cc(OCC(F)(F)F)cc(C(C)(C)C)c4n3)o2)C1 (stereo not shown) [Compound 494] | 43.1 nM |  |  |
